Data published in patent publication US20100273203A1 (priority 2009, published 2010).
Read-outs that look alike come from different tables or passages of the source.

Legend:
[1] = LC-MS/MS urinary metabolic profile of patients receiving warfarin; conditions: for % R / % S (proportion in (S)-enantiomeric form) / % conjugated (proportion glucuronidated) / urinary concentration: urine; for urinary concentration: free and conjugated; for share of (S)-WAR P450 metabolites measured: three urine specimens
Text: All chemicals used in this study were of at least reagent grade. Unless otherwise specified, all chemicals and reagents were purchased from either Sigma-Aldrich (St. Louis, Mo.) or Thermo Fisher Scientific (Waltham, Mass.). […] Ethyl alcohol (100%) was purchased from AAPER (Shelbyville, Ky.). Re-combinant CYP2C9*1, CYP3A4, CYP1A2, and CYP2C19 were expressed in baculovirus-infected insect cells and purchased from BD Biosciences (San Jose, Calif.). Commercially available urine specimens from three females (F84, F85, and F87) were provided by the Emergency Response and Air Toxicants Branch, Division of Laboratory Science National Center for Environmental Health Centers for Disease Control and Prevention (DeKalb County, Ga.). Patient studies were conducted under IRB-approved protocols, and all patients signed informed consent documentation.
This analytical phase was accomplished by reverse-phase HPLC using a 4.6 mm×150 mm C18 Zorbax Eclipse 5 μm XDB-C18 column provided by Agilent (Santa Clara, Calif.). The operating temperature was 40° C., and the sample injection volume was 5.0 μL. HPLC mobile phases consisted H2O (0.1% acetic acid v/v) (A) and methanol (0.1% acetic acid v/v) (B). The flow rate was 1 mL/min. […] The total run time per sample was 10 min. Specific MS/MS experimental conditions used in this study are noted in Table 1.
To determine the relative abundance of the (R)-and (S)-enantiomers of each metabolite, a 4.6 mm×25 cm Chirobiotic V5 μm column supplied by Supelco (Bellefonte, Pa.) was incorporated during the second analytical phase. Mobile phases consisted of H2O (0.1% acetic acid v/v) (A) and acetonitrile (0.1% acetic acid v/v) (B) with a flow rate of 800 μL/min. Enantiomeric separations were accomplished under isocratic conditions (80% A and 20% B). The sample injection volume was 15.0 μL. Enantiomeric MS/MS analyses were performed in negative ion mode by electrospray ionization (ESI) using a Turbo IonSpray source. A total run time of 20 min was required for adequate resolution. Specific MS/MS experimental conditions used in this study are noted in the Table 2.
Each response was normalized to that of the internal standard, 7-hydroxycoumarin (10 μM). […] Measurements of these three metabolites were calculated by taking the difference of the amount measured in the first analytical phase, which contained both (R)-and (S) isomers from the amount of the (S)-isomer measured in the second analytical phase (eq 3). Glucuronidated metabolites were measured by incubating 250 μL of urine with 2000 units of GUS in 100 mM sodium acetate buffer, pH 5.0. The final volume for each of these reactions was 1 mL. Control reactions omitting GUS were included with each sample set. Reactions were incubated overnight at 37° C., after which they were stored at −80° C. Immediately before analysis, both samples were diluted with an equal volume of ethanol containing 7-hydroxycoumarin (10 μM final concentration). The difference between GUS-treated samples and controls represented the amount of glucuronidated metabolites present.

[2] = biological target: CYP2C9 (Homo sapiens, UniProt P11712); conditions: read-out: IC50 toward recombinant CYP2C9 activity; P450-Glo, 50 μM Luciferin H; racemic compounds
Description: Hydroxywarfarins were screened for inhibitory potential toward recombinant CYP2C9 using the Promega (Madison, Wis.) CY2C9 P450-Glo™ Assay using the manufacturer's protocol. These IC50 studies were analyzed on a PerkinElmer Victor^3V™ 1420 Multilabel Counter. Recombinant CYP2C9, 50 nM, was incubated with 50 μM Luciferin H, and six concentrations of each hydroxywarfarin from approximately 10 nM to 4 mM final concentration, as optimized for each compound. The appropriate volume of hydroxywarfarin stocks in 100% ethanol were added to each well prior to addition of the substrate and enzyme, and the ethanol was allowed to evaporate at room temperature to minimize solvent effects on CYP2C9 activity. A final DMSO concentration of 1% was present in the reactions due to the P450-Glo Luciferin H. The reaction was initiated upon addition of an NADPH regenerating solution (BD Biosciences) and quenched with a luciferase quench (Promega) at 30 min.

[3] = biological target: CYP2C9 present in the human liver microsomes (Homo sapiens, UniProt P11712); conditions: for Ki / Mechanism of inhibition: S-warfarin metabolism
Description: (§1) For each hydroxywarfarin, at least 4 independent experimental replicates were performed.
(§2) MS/MS experimental conditions was used as described previously (6).
(§3) The most probable inhibition mechanism for recombinant CYP2C9 and human liver microsome reactions was identified using DynaFit ver. 3.28 (Biokin, Ltd) (20). Data from each set of hydroxywarfarin experiments were fit to traditional reversible inhibition mechanisms (competitive, uncompetitive, noncompetitive, or mixed). The respective kinetic parameters (Ki and Ki′) were set as variables, while the kinetic parameters (Vmax and Km) were constants based on values obtained from uninhibited reactions. The most probable mechanism was then identified using the Akaike Information Criterion (AICc) for model discrimination (21).

[4] = biological target: T1, CYP2C9*1 (Homo sapiens, UniProt P11712); conditions: for Ki / Mechanism of inhibition: S-warfarin metabolism
Description: as §1, §2, §3

[5] = biological target: T2, CYP1A2 (Homo sapiens, UniProt P05177); conditions: read-out: IC50 for CYP marker reaction; P450-Glo marker reaction
T2 sequence (P05177 1-516): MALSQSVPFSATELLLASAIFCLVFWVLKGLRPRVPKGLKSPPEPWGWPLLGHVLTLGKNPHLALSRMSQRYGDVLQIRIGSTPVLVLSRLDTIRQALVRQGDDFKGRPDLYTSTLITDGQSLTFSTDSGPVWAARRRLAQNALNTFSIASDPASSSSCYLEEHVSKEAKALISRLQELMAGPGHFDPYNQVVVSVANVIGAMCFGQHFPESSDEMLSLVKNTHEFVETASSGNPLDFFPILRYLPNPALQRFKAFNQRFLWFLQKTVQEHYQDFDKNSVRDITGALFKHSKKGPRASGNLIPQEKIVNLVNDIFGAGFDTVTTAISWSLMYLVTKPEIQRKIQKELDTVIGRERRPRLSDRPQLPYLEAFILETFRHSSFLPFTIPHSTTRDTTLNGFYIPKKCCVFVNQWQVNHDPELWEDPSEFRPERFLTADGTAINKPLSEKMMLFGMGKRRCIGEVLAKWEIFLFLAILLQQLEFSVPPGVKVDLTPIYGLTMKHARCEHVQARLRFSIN

[6] = biological target: T1, CYP2C9*1; conditions: read-out: IC50 for CYP marker reaction; P450-Glo marker reaction
[7] = biological target: T3, CYP3A4 (Homo sapiens, UniProt P08684); conditions: read-out: IC50 for CYP marker reaction; P450-Glo marker reaction
[8] = test system: plasma proteins; conditions: cited from earlier work
[9] = biological target: UGT1A10 (Homo sapiens, UniProt Q9HAW8); conditions: glucuronidation; racemic OHWars
Text: (§4) The characterization of hepatic and extrahepatic glucuronidation may be made based on glucuronidation studies with 100 commercially available HLM and 100 intestinal microsomal preparations available in our laboratory. […] Both racemic mixtures and separated R and S enantiomers may be assayed. […] Activities of extrahepatic (UGT1A8 and UGT1A10) and hepatic (UGT1A1, UGT1A3, and UGT1A9) isoforms may be compared to that of their respective microsomal preparations, and assign the contribution of specific UGTs to product formation by the human samples.

[10] = biological target: UGT1A1 (Homo sapiens, UniProt P22309); conditions: glucuronidation; racemic OHWars
Text: as §4

[11] = Estimated unbound levels in plasma of long-term warfarin therapy patients; conditions: estimated from literature data
[12] = biological target: T3, CYP3A4; test: Steady-state metabolism of R- and S-warfarin by recombinant CYP3A4
Description: (§5) Reactions were initiated upon addition of an NADPH regenerating system [2 μU μL-1 glucose 6-phosphate dehydrogenase, 10 mM glucose 6-phosphate, 2 mM MgCl2, 1 mM NADP^+]. […] The quenched reactions were centrifuged and the resulting supernatant containing substrate and products resolved and quantified by UPLC-MS/MS. Each experiment was performed in at least 4 independent experimental replicates.
(§6) The flow rate was constant at 250 μL/min. […] Electrospray conditions were as follows: spray voltage of 4500 V, sheath gas pressure 45, auxiliary gas pressure 20, and collision energy of 15-15 eV (compound specific).
(§7) Final metabolite concentrations were calculated from the ratio of metabolite area to internal standard area in the sample and compared to calibration curves as determined from the UPLC-MS/MS method. All compounds were quantified relative to authentic standards. The resulting kinetic data were analyzed with GraphPad Prism 5® software. Non-linear regression analysis was used to fit steady-state data to the Michaelis-Menten equation to determine the Vmax and Km parameters.

[13] = biological target: CYP3A7 (Homo sapiens, UniProt P24462); test: Steady-state metabolism of R- and S-warfarin by recombinant CYP3A7
Description: as §5, §6, §7

[14] = 7-hydroxywarfarin formation as marker
[15] = based on S-6-hydroxywarfarin formation
[16] = 10-hydroxywarfarin formation, 37° C, pH 7.4

CYP2C9 present in the human liver microsomes, sequence (P11712 whole entry): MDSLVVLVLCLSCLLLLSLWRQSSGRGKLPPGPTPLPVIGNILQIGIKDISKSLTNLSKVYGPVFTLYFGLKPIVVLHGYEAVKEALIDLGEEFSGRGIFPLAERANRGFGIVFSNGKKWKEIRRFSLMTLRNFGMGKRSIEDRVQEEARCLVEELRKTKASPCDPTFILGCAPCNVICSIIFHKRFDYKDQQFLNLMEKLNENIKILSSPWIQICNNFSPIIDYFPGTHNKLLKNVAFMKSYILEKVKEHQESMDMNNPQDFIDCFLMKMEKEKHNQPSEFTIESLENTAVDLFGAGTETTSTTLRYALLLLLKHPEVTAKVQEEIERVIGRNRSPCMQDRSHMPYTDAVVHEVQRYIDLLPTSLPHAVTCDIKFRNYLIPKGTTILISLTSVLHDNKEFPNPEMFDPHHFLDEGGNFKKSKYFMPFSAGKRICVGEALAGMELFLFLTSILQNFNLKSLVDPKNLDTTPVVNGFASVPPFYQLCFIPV
CYP2C9, sequence (P11712 whole entry): as above
UGT1A10, sequence (Q9HAW8 26-530): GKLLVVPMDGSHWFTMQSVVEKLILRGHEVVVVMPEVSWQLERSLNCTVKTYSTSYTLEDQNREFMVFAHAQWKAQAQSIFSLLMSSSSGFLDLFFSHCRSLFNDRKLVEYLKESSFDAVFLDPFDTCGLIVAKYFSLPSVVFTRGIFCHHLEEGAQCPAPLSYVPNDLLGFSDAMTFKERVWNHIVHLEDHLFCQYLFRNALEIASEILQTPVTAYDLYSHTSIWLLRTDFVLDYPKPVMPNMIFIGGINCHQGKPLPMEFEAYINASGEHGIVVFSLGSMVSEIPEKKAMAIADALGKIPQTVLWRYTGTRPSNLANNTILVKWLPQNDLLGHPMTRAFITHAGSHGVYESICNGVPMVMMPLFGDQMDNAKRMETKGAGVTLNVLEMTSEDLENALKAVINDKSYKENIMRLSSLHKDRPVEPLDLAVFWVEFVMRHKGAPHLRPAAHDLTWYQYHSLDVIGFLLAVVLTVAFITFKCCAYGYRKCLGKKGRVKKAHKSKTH
CYP3A7, sequence (P24462 whole entry): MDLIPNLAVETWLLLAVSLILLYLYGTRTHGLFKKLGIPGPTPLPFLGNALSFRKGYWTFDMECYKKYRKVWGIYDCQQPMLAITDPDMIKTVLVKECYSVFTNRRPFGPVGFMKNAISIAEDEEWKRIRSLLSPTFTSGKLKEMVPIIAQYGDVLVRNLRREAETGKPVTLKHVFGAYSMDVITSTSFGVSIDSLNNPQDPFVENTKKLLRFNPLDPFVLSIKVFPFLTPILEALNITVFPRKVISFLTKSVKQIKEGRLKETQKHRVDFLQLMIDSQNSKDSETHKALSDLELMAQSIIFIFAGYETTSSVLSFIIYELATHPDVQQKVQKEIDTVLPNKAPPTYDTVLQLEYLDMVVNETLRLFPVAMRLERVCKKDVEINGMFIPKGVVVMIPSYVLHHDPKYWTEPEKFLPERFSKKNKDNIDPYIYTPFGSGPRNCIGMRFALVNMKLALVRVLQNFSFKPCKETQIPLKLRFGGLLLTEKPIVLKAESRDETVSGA
T3 sequence (P08684 whole entry): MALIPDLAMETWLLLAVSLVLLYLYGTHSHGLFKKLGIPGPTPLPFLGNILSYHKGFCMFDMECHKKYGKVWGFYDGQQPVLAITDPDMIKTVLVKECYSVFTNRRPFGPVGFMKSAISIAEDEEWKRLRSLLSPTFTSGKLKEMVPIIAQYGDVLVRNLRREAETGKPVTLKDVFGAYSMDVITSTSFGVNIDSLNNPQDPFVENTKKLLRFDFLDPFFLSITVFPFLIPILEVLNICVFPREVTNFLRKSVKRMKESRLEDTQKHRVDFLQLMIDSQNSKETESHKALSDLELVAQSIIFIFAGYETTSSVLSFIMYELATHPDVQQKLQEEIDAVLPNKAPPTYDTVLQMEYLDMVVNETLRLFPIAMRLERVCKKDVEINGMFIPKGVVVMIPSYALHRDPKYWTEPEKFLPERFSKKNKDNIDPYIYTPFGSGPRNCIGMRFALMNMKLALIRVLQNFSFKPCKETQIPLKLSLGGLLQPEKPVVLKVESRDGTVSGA
UGT1A1, sequence (P22309 26-533): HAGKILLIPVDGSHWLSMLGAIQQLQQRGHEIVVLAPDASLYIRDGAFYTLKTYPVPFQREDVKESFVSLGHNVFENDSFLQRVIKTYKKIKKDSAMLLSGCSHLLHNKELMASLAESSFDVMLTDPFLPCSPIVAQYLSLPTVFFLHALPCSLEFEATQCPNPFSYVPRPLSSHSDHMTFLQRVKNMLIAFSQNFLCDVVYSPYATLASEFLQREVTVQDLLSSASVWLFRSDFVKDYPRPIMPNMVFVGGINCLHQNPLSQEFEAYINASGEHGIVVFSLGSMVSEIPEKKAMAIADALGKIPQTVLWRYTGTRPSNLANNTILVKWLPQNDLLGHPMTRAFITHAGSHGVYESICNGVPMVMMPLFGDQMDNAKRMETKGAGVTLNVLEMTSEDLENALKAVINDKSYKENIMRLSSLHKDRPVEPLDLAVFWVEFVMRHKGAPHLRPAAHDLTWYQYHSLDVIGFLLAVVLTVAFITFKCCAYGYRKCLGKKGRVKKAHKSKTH

Row | SMILES | % R ([1]; patient F84) [%] | % S (proportion in (S)-enantiomeric form) ([1]; patient F84) [%] | % conjugated (proportion glucuronidated) ([1]; patient F84) [%] | urinary concentration ([1]; patient F84) [nM] | % R ([1]; patient F85) [%] | % S (proportion in (S)-enantiomeric form) ([1]; patient F85) [%] | urinary concentration ([1]; patient F85) [nM] | % R ([1]; patient F87) [%] | % S (proportion in (S)-enantiomeric form) ([1]; patient F87) [%] | urinary concentration ([1]; patient F87) [nM] | IC50 [2] [µM] | Ki [3, 14] [µM] | Mechanism of inhibition [3, 14] | Ki [4, 14] [µM] | IC50 [5] [µM] | IC50 [6] [µM] | IC50 [7] [µM] | plasma protein binding affinity relative to warfarin [8] | mean unbound concentration in human plasma (estimated) [11] [ng/mL] | other results
1 | CC(=O)CC(c1ccc(O)cc1)c1c(O)c2ccccc2oc1=O (stereo not shown) [4′-OH-WAR, 4′-hydroxywarfarin] | 64 | 56 | 47 | 140 | 25 | 75 | 94 | 30 | 70 | 20 | 9.3 | 17 | Competitive | 17 | > 3000 | 8.4 | 39 | affinity comparable to warfarin | – | Mechanism of inhibition [4, 14]: Mixed; Ki ([4]; 7-hydroxywarfarin formation as marker, mixed inhibition): 133 µM
2 | CC(=O)CC(c1ccccc1)c1c(O)c2cc(O)ccc2oc1=O (stereo not shown) [6-OH-WAR, 6-hydroxywarfarin] | 65 | 35 | 35 | 560 | 69 | 31 | 1124 | 62 | 38 | 204 | 47 | 167 | Competitive | > 170 | 1400 | 44.3 | > 500 | three- to four-fold lower affinity | – | % conjugated (proportion glucuronidated) ([1]; patient F85): 15%; % conjugated (proportion glucuronidated) ([1]; patient F87): 12%; Km [9]: 399 ± 130 µM; Vmax [9]: 3.1 ± 0.4 nmol/mg protein/min; Ki, fold higher than the marker Km ([3]; human liver microsomes): approximately 32 fold; Mechanism of inhibition ([4]; 7-hydroxywarfarin formation as marker, listed as 6-hydroxywarfarin): no inhibition was observed; Mechanism of inhibition ([4]; 7-hydroxywarfarin formation as marker, listed as 6OHWAR): None
3 | CC(=O)CC(c1ccccc1)c1c(O)c2ccc(O)cc2oc1=O (stereo not shown) [7-OH-WAR, 7-hydroxywarfarin] | 80 | 20 | 69 | 1964 | 38 | 62 | 2404 | 52 | 48 | 724 | 35 | – | – | – | 400 | 45.7 | > 500 | three- to four-fold lower affinity | 6.2 | % conjugated (proportion glucuronidated) ([1]; patient F85): 28%; % conjugated (proportion glucuronidated) ([1]; patient F87): 14%; Km [10]: 58.8 ± 24 µM; Vmax [10]: 1.3 ± 0.1 nmol/mg protein/min; Km [9]: 220 ± 40 µM; Vmax [9]: 1.0 ± 0.1 nmol/mg protein/min; Ki [3, 15]: 64 µM; Mechanism of inhibition [3, 15]: Competitive; Ki, fold higher than the marker Km ([3]; human liver microsomes): 8.5 fold; Ki [4, 15]: 10 µM; Mechanism of inhibition [4, 15]: Competitive; Ki, fold higher than the marker Km ([4]; recombinant CYP2C9): 4.5 fold
4 | CC(=O)C(O)C(c1ccccc1)c1c(O)c2ccccc2oc1=O (stereo not shown) [10-OH-WAR, 10-hydroxywarfarin] | – | – | – | – | – | – | – | – | – | – | 1.6 | 2.2 | Competitive | 0.94 | – | 2 | – | – | 5.8 | detection in urine specimens ([1]; any of the three specimens): not detected; Ki, fold lower than the microsomal Km for S-warfarin ([3]; human liver microsomes): 2.4 fold; Mechanism of inhibition [4, 14]: Competitive; Ki, fold lower than the Km for S-warfarin ([4]; recombinant CYP2C9): approximately 2.5 fold
5 | CC(=O)C[C@@H](c1ccccc1)c1c(O)c2ccc(O)cc2oc1=O [(S)-7-OH-WAR, (S) 7-hydroxywarfarin] | – | – | – | – | – | – | – | – | – | – | – | – | – | – | – | – | – | – | – | share of (S)-WAR P450 metabolites measured [1]: 61-71%
6 | CC(=O)C[C@@H](c1ccccc1)c1c(O)c2cccc(O)c2oc1=O [(S)-8-OH-WAR, (S) 8-hydroxywarfarin] | – | – | – | – | – | – | – | – | – | – | – | – | – | – | – | – | – | – | – | share of (S)-WAR P450 metabolites measured [1]: 4-20%
7 | CC(=O)C[C@@H](c1ccccc1)c1c(O)c2ccccc2oc1=O [S-warfarin, (S) warfarin, reference compound] | – | – | – | – | – | – | – | – | – | – | – | – | – | – | – | – | – | – | 2.7 | Km ([12]; 4′-hydroxywarfarin formation): 27 µM; Vmax ([12]; 4′-hydroxywarfarin formation): 64 pmol product/min/nmol P450; Km ([12]; 10-hydroxywarfarin formation): 26 µM; Vmax [12, 16]: 76 pmol product/min/nmol P450; Km ([13]; 4′-hydroxywarfarin formation): 2280 µM; Vmax ([13]; 4′-hydroxywarfarin formation): 321 pmol product/min/nmol P450; Km ([13]; 10-hydroxywarfarin formation): 81 µM; Vmax [13, 16]: 22 pmol product/min/nmol P450
